The values below come from patent publication US11266626B2, “Reduction of ER-MAM-localized APP-C99 and methods of treating alzheimer's disease” (THE TRUSTEES OF COLUMBIA UNIVERSITY IN THE CITY OF NEW YORK, priority 2015, dated 2022).

“Also recorded” adds a separate entry of the source. Structures can show the parent of a compound that is named as a salt.

Assay [1] relates to WT MEFs and presenilin-mutant (PS-DKO) cells. Kind of assay: Filipin staining of free cholesterol. Type of assay: cell-based, mouse. As to conditions: presenilin-mutant (PS-DKO) cells; CsA 100 nM; SSO 250 nM. The method, then: Cells were washed in PBS and fixed in 3% paraformaldehyde at room temperature for 1 h. After washing in PBS three times, samples were incubated in 1.5 mg/ml glycine in 1×PBS to quench the paraformaldehyde and then incubated in 0.05 mg/ml of filipin in PBS/10% FBS for 2 h at room temperature. Free cholesterol signal was visualized in by microscopy and quantified by ImageJ.

The subject of assay [2] is PS-DKO cells. The assay can be described thus: Seahorse analysis of mitochondrial respiration (OCR). Type of assay: cell-based, mouse. Conditions: BI 100 nM, myriocin 5 μM, TAPI-1 5 μM, 12-16 h, Aβ40:Aβ42 10:1, 6 ng/ml. How it is done: (§1) Respirometry of cultured cells was performed using the XF24e Extracellular Flux Analyzer (Seahorse Bioscience). Oxygen consumption was measured in basal conditions (Seahorse media with 25 mM glucose and 2 mM pyruvate) and after the sequential addition of 1 μM oligomycin (Complex V inhibitor), 0.75 μM FCCP (uncoupler) and 1 μM rotenone/1 μM antimycin A (Complex I and Complex III inhibitors respectively).
(§2) Respirometry of cultured cells was performed using the XF24e Extracellular Flux Analyzer (Seahorse Bioscience). Oxygen consumption was measured in basal conditions (Seahorse media with 25 mM glucose and 2 mM pyruvate) and after the sequential addition of 1 μM oligomycin (complex V inhibitor), 0.75 μM FCCP (uncoupler), and 1 μM rotenone/1 μM antimycin A (complex I and complex III inhibitors, respectively). All results were averages of five or more biological replicates. Every biological replicate consisted of three technical replicates. For every technical replicate, we plated equal number of cells (25,000 cell/well when MEFs were used, and 50,000 cells/well when human primary fibroblasts were analyzed). The number of cells was also counted after every respirometry assay to correct for cell death. All oxygen consumption (OCR) data were normalized by the number of viable cells or by protein quantity when isolated mitochondria were used.

Assay [3] concerns mitochondrial respiratory supercomplexes. The assay can be described thus: Supercomplex analysis (blue-native gels, in-gel activity and western blot). In kind it is cell-based, mouse. How it is done: Analysis and quantification of mitochondrial respiratory complexes by western blot and enzymatic in-gel activity were carried out as previously reported (Acin-Perez et al., 2008)
Analysis and quantification of mitochondrial respiratory complexes by Western blot and enzymatic in-gel activity were carried out as described (Acin-Perez et al, 2008).
A general note: A western blot detects proteins with antibodies after separation by electrophoresis.

Assay [4] relates to PS-DKO cells. Kind of assay: Lipidomic analyses of membranes. Type of assay: cell-based, mouse. Conditions: PS-DKO cells; BI 100 nM or myriocin 5 μM. The method, then: (§3) Lipid extracts were prepared via chloroform-methanol extraction, spiked with appropriate internal standards, and analyzed using a 6490 Triple Quadrupole LC/MS system (Agilent Technologies, Santa Clara, Calif.) as described previously (6, 7). Glycerophospholipids and sphingolipids were separated with normal-phase HPLC using an Agilent Zorbax Rx-Sil column (inner diameter 2.1×100 mm) under the following conditions: mobile phase A (chloroform:methanol:1 M ammonium hydroxide, 89.9:10:0.1, v/v) and mobile phase B (chloroform:methanol:water:ammonium hydroxide, 55:39.9:5:0.1, v/v); 95% A for 2 min, linear gradient to 30% A over 18 min and held for 3 min, and linear gradient to 95% A over 2 min and held for 6 min. Quantification of lipid species was accomplished using multiple reaction monitoring (MRM) transitions that were developed in earlier studies (6) in conjunction with referencing of appropriate internal standards: ceramide d18:1/17:0 and sphingomyelin d18:1/12:0 (Avanti Polar Lipids, Alabaster, Ala.).
as §3, with “Lipids were extracted from equal amounts of material (30 μg protein/sample). Lipid extracts” for “Lipid extracts”, “described previously (Chan et al., 2012). Glycerophospholipids and” for “described previously (6, 7). Glycerophospholipids and”, “hydroxide, 89.9:10:0.1, v/v/v) and mobile” for “hydroxide, 89.9:10:0.1, v/v) and mobile”, “hydroxide, 55:39.9:5:0.1, v/v/v); 95% A” for “hydroxide, 55:39.9:5:0.1, v/v); 95% A”, “earlier studies (Chan et al., 2012) in conjunction” for “earlier studies (6) in conjunction”, “Alabaster, Ala.). Values are represented as mole fraction with respect to total lipid (% molarity)” for “Alabaster, Ala.).”
Lipids were extracted from equal amounts of material (30 μg protein/sample). Lipid extracts were prepared via chloroform-methanol extraction, spiked with appropriate internal standards, and analyzed using a 6490 Triple Quadrupole LC/MS system (Agilent Technologies, Santa Clara, Calif.) as described previously (Chan et al, 2012). Glycerophospholipids and sphingolipids were separated with normal-phase HPLC using an Agilent Zorbax Rx-Sil column (inner diameter 2.1×100 mm) under the following conditions: mobile phase A (chloroform:methanol:1 M ammonium hydroxide, 89.9:10:0.1, v/v/v) and mobile phase B (chloroform:methanol:water:ammonium hydroxide, 55:39.9:5:0.1, v/v/v/v); 95% A for 2 min, linear gradient to 30% A over 18 min and held for 3 min, and linear gradient to 95% A over 2 min and held for 6 min. Quantification of lipid species was accomplished using multiple reaction monitoring (MRM) transitions that were developed in earlier studies (Chan et al, 2012) in conjunction with referencing of appropriate internal standards: ceramide d18:1/17:0 and sphingomyelin d18:1/12:0 (Avanti Polar Lipids, Alabaster, Ala., USA). Values are represented as mole fraction with respect to total lipid (% molarity). For this, lipid mass (in moles) of any specific lipid is normalized by the total mass (in moles) of all the lipids measured (Chan et al, 2012). In addition, all of our results were further normalized by protein content.

A further assay has as its target TRPML1 (Homo sapiens, UniProt Q9GZU1). As to conditions: Shen, D. et al.; cited from earlier work.
For another assay, the system named is AD mice. As to conditions: cited from earlier work.
Another assay relates to γ-secretase. Conditions: A2A-AR antagonists; Lu, J. et al.; cited from earlier work.
The subject of a further assay is APP. As to conditions: cited from earlier work; for Aβ: literature.
For another assay, the system named is APP-DKO cells. The assay can be described thus: Seahorse analysis of mitochondrial respiration (OCR). In kind it is cell-based, mouse. As to conditions: WT and APP-DKO cells, Aβ42 oligomers 0, 5, 10 μM, 24 h, effect only at 10 μM. How it is done: as §1
To analyze the effect of Aβ addition, a mix of Aβ40/Aβ42 at a ratio 10:1 was added to the cultured cells to a final concentration of 6000 pg/ml for 24 h. For Aβ42 oligomer formation, 5 mM of Aβ42 in DMSO was diluted to 100 μM in ice-cold media, vortexed for 30 seconds, and incubated at 4° C. for 24 h. Aβ42 Oligomers were added to the cultured cells to a final concentration of 5 or 10 μM for 24 h.
as §2
To analyze the effect of Aβ addition, a mix of Aβ40/Aβ42 at a ratio 10:1 was added to the cultured cells to a final concentration of 6,000 pg/ml for 24 h. For Aβ42 oligomer formation, 5 mM of Aβ42 in DMSO was diluted to 100 μM in ice-cold media, vortexed for 30 s, and incubated at 4° C. for 24 h. […]

The subject of assay [5] is PS-DKO cells. Kind of assay: Staining of lipid droplets with LipidTox Green. As to conditions: BI 100 nM, desipramine 10 μM, GW4869 5 μM, 12-16 h, Gleevec 10 μM. Type of assay: cell-based, mouse. How it is done: Quantification of total cholesterol and cholesteryl esters was performed using the Cholesterol/Cholesteryl Ester Quantitation kit from Calbiochem (428901). Staining of lipid droplets Staining of lipid droplets was performed using HCS LipidTox™ Deep Green neutral lipid stain (Invitrogen H34475) according to the manufacturer's instructions. Lipid droplet staining was quantified using ImageJ. The different values represent the product of the intensity and the area covered by the fluorescent signal above background in every cell examined.
Staining of lipid droplets was performed using HCS LipidTox™ Deep Green neutral lipid stain (Invitrogen H34475) according to the manufacturer's instructions. Lipid droplet staining was quantified using ImageJ. The different values represent the product of the intensity and the area covered by the fluorescent signal above background in every cell examined.

A further assay has as its system Aβ42:Aβ40 ratio. The assay can be described thus: Aβ42:Aβ40 ratio (ELISA). In kind it is cell-based. Conditions: PS-mutant cells, desipramine. The method, then: Detection of Aβ40/Aβ42 levels in cell media was performed by ELISA following manufacturer's instructions (WAKO ELISA kit 294-64701 for Aβ40 and 292-64501 for Aβ42).

TRPML1, sequence (Q9GZU1 whole entry, species assumed): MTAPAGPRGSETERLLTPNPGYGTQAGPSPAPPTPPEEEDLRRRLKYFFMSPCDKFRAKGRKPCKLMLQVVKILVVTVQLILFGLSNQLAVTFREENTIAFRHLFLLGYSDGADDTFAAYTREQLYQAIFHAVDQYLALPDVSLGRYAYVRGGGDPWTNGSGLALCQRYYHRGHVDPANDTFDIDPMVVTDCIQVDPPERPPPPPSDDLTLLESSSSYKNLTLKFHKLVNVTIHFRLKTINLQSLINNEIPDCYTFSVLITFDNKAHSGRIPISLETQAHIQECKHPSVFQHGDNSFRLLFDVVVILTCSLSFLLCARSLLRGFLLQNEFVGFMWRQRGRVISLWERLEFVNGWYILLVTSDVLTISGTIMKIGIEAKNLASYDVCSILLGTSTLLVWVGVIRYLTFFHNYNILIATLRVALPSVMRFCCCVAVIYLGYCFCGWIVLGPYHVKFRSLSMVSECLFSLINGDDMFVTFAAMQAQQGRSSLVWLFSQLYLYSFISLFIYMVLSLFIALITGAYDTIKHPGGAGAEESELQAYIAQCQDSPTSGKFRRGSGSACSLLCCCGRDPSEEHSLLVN

With `CCCCCCCC/C=C\CCCCCCCC(=O)ON1C(=O)CC(S(=O)(=O)O)C1=O` (centres unmarked) [sulfo-N-succinimidyl oleate], the “free cholesterol levels (filipin staining)” value in assay [1] is given as “reduces cholesterol levels in presenilin-mutant cells; also recorded: equally marked reduction in cellular free cholesterol”.
As to `CCCCCCC(=O)CCCCCC/C=C/C[C@@H](O)[C@H](O)[C@@](N)(CO)C(=O)O` [myriocin], the “mitochondrial respiration (initial oxygen consumption rate, OCR)” value in the assay on PS-DKO cells [2] is on record as “reversed the respiratory defect; also recorded: rescued the bioenergetic defect; also recorded: reversed the bioenergetic deficits in these cells”. The “activity of supercomplexes I+III+IV, I+III and III+IV (in-gel complex I and IV activity)” value in assay [3] (mitochondria from PS-DKO cells incubated with BI or myriocin) was “rescued”. Also, the “assembly of respiratory supercomplexes (blue-native PAGE western blot)” value in [3] (mitochondria from PS-DKO cells, anti-complex I and III antibodies) is “increases the assembly of supercomplexes I+III and I+III+IV”. Moreover, in the assay on PS-DKO cells [4], the ceramide levels result is recorded as “significant reductions in ceramide content” and the sphingomyelin levels result is on record as “slight decreases in sphingomyelin”.
Consider `CC(C)C[C@H](CC(=O)NO)C(=O)N[C@@H](Cc1ccc2ccccc2c1)C(=O)N[C@@H](C)C(=O)NCCN` [TAPI-1], for which the “mitochondrial respiration (initial oxygen consumption rate, OCR)” value with PS-DKO cells [2] is given as “unaffected”.
On to `CC1CC(C)(C)N(C(=O)CN2C(=O)c3ccccc3C2=O)c2ccccc21` (centres unmarked) [ML-SA1], for which, at TRPML1, the “TRPML1-mediated lysosomal Ca2+ release” value is on record as “enhances TRPML1-mediated lysosomal Ca^2+ release” and the cholesterol entry is given as “reduces cholesterol”.
For `O=C1[C@H](CC[C@H](O)c2ccc(F)cc2)[C@@H](c2ccc(O)cc2)N1c1ccc(F)cc1` [Ezetimibe], the cognition / memory entry with AD mice is listed as “improves memory in AD mice”.
`COc1ccc(N2CCOCC2)c2sc(NC(=O)N3CCC(C)(O)CC3)nc12` [Tozadenant]: in the assay with γ-secretase, the Aβ42 entry is reported as “increased Aβ42” and the γ-secretase activity result is “increased γ-secretase activity”.
On to `CCCCCCCC[C@H](SCCCCCC)C(=O)Nc1c(SC)cc(C)nc1SC` [CP-113,818], for which the Aβ result in the assay with APP is “reduces Aβ”.
For the compound `CC(C)(C)NCC(O)c1cc(Cl)c(N)c(Cl)c1` (centres unmarked) [Clenbuterol], in the assay on APP (Chai, G-s. et al.), the “Thr668p (APP phosphorylated at Thr668)” value is “reduced Thr668p” and the α-secretase entry is given as “increased α-secretase”. Also, the Aβ result in the assay on APP is on record as “decreased Aβ”.
For the compound `COCCOc1ccc(N2CCN(CCn3ncc4c3nc(N)n3nc(-c5ccco5)nc43)CC2)cc1` [Preladenant], in the assay on γ-secretase, the Aβ42 result is on record as “increased Aβ42” and the γ-secretase activity result is on record as “increased γ-secretase activity”.
On to `O=C(O)CCCc1ccccc1` [PBA, phenylbutyric acid], for which the “α- and γ-cleavage of APP” value in the assay on APP (reference [1]) is “stimulates both α- and γ-cleavage of APP”. Besides, in the assay with AD mice, the cholesterol defects entry is on record as “rescues cholesterol defects”; the cognition / memory entry was “rescues cholesterol defects [4-6] and cognition”.
As to “Aβ42 oligomers: oligomers formed from synthetic Aβ42 peptide, added at 5 or 10 μM”, the “mitochondrial respiration (OCR)” value is recorded as “slightly decreased” with APP-DKO cells and “had little effect on respiration” in the assay with APP-DKO cells (listed as Aβ oligomers).
Consider `CNCCCN1c2ccccc2CCc2ccccc21` [desipramine], for which the “number of lipid droplets (LDs)” value in the assay on PS-DKO cells [5] is “reduced the accumulation of lipid droplets in PS-DKO cells to near-control levels; also recorded: reduced lipid droplet formation”. The “Aβ42:Aβ40 ratio” value in the assay on Aβ42:Aβ40 ratio was “reduced the Aβ42:Aβ40 ratio”; with Aβ42:Aβ40 ratio (listed as Desipramine) it was “significantly reduced the Aβ42:Aβ40 ratio”.
As to `Cc1ccc(NC(=O)c2ccc(CN3CCN(C)CC3)cc2)cc1Nc1nccc(-c2cccnc2)n1` [Gleevec, imatinib mesylate], the “number of lipid droplets (LDs)” value in the assay on PS-DKO cells [5] is “significant reduction of LDs”.
On to `O=C(/C=C/c1ccc(/C=C/C(=O)Nc2ccc(C3=NCCN3)cc2)cc1)Nc1ccc(C2=NCCN2)cc1` [GW4869], for which the “number of lipid droplets (LDs)” value in the assay with PS-DKO cells [5] is reported as “reduced the accumulation of lipid droplets in PS-DKO cells to near-control levels; also recorded: reduced lipid droplet formation”.
As to cyclosporin A, the “free cholesterol levels (filipin staining)” value in [1] is “reduces cholesterol levels in presenilin-mutant cells; also recorded: the increased level of cholesterol seen in PS-mutant cells was reversed”.
